Each structure is given as a SMILES string.

The test has as its system phenyl-para-quinone induced writhing. As to the kind of experiment: phenyl-para-quinone writhing assay in mice (analgesia). It counts as in vivo. To be noted: Mus musculus, oral, read-out: Analgesic Activity ED50 (oral dose at which 50% of the phenyl-para-quinone induced writhing is inhibited). An excerpt:
Exptl. Biol. Med., 95,729 (1957)]. Presented in Table I is the analgesic effect of some of the compounds of the invention expressed as the oral dose at which 50% of the phenyl-para-quinone induced writhing is inhibited in the animals, i.e., the ED50 value.
(In general: An intraperitoneal irritant provokes the stretching counted in writhing tests.)
Turning to `CC(=O)Nc1ccc(OC(=O)N(C)OC(C)=O)cc1` [4-(Acetylamino)phenyl-N-(acetyloxy)-N-methyl carbamate], the ED50 is 42.7 mg/kg.

With `CC(=O)Nc1ccc(OC(=O)N(C)O)cc1` [4-(Acetylamino)phenyl-N-hydroxy-N-methyl carbamate], the ED50 worked out at 32.3 mg/kg.

Regarding `CC(=O)Nc1ccc(OC(=O)N(C)OCc2ccccc2)cc1` [4-(acetylamino)phenyl-N-benzyloxy-N-methyl carbamate], the ED50 was determined as 28.5 mg/kg.

With `CC(=O)Nc1ccc(O)cc1` [Acetaminophen, reference compound], the ED50 came to 33.8 mg/kg.

The term ED50 denotes the dose at which the effect has come halfway, by size or by number of responders.

(Values after patent publication US5109011A, “P-acylaminophenoxycarbamates and derivatives” (Hoechst-Roussel Pharmaceuticals Incorporated, priority 1990, dated 1992).)
